Laboratory results: PubChem BioAssay AID2789 (Sanford-Burnham Center for Chemical Genomics, 2010)
Calls of active or inactive are those of the source. No rule for the calls is given here.

Test system: NF-kappaB luciferase reporter cells, doxorubicin-induced, luminescence
Assay: NF-kB luciferase suppression after doxorubicin – cell-based, doxorubicin inducer, set 2, SAR follow-up (AID 2789)

IC50, inactive:
C/C=C/Cn1c(SCc2ccc(Cl)cc2)nc2c1c(=O)[nH]c(=O)n2C > 25 µM
CC(C)Sc1nc2c(c(=O)[nH]c(=O)n2C)n1Cc1ccccc1 > 25 µM
COCCn1c(SCCCc2ccccc2)nc2c1c(=O)[nH]c(=O)n2C > 25 µM
C/C(Cl)=C\Cn1c(NCCc2ccccc2)nc2c1c(=O)n(C)c(=O)n2C > 25 µM
Cn1c(=O)[nH]c(=O)c2c1nc([N+](=O)[O-])n2Cc1ccccc1 > 25 µM
C/C=C/Cn1c(SCCCc2ccccc2)nc2c1c(=O)[nH]c(=O)n2C > 25 µM
CCCCn1c(SCC(=O)c2ccccc2)nc2c1c(=O)[nH]c(=O)n2C > 25 µM
Nc1nc2ccccc2n1CCOc1ccc(Cl)cc1 > 25 µM
CCCn1c(SCC(=O)Nc2nc3c(s2)CCCC3)nc2c1c(=O)n(C)c(=O)n2C > 25 µM
CCCCCn1c(SCCc2ccccc2)nc2c1c(=O)[nH]c(=O)n2C > 25 µM
CC(C)n1c(SCCCc2ccccc2)nc2c1c(=O)[nH]c(=O)n2C > 25 µM
C/C=C/Cn1c(SCc2ccccc2)nc2c1c(=O)[nH]c(=O)n2C > 25 µM
C=CCn1c(SCCCc2ccccc2)nc2c1c(=O)[nH]c(=O)n2C > 25 µM
CCCn1c(SCCc2ccccc2)nc2c1c(=O)[nH]c(=O)n2C > 25 µM
CCCCn1c(SCC(=O)Nc2nnc(CC)s2)nc2c1c(=O)n(C)c(=O)n2C > 25 µM
